Laboratory results taken from patent US8822433B2, “Complex combining an organic silicon derivative with hyaluronic and acid calibrated fragments, for preventive and repairing action of cutaneous damages” (Exsymol S.A.M., priority 2008, dated 2014).

Assays:
[1] = system: reconstructed human epidermis model (RHE) keratinocytes; assay: Ki67 immunotracking of cell proliferation on reconstructed human epidermis (tests 1 and 4); assay type: cell-based; conditions: for % cells expressing Ki67/number of total cells (% in relation to the control): vs PBS control
Description: (§1) As purely an indication, the invention is hereafter illustrated by the following tests above described in the specification (tests 1 to 3), and a comparative study (test 4). In tests 1, 2 and 4, the experimental studies have been carried out on a reconstructed human epidermis model (RHE, supplier: SkinEthic®) whose interest is a strong homology with human epidermis.
(§2) The culture of RHE consisted in placing them in a “MCDB 153” growth medium (supplier : SkinEthic®) containing […] of insulin, 1.5 mM of CaCl2 and […] of gentamycine, for 24 hours at 37° C. and 5% CO2.
The observation of cellular proliferation is achieved with the immunotracking technique (Gerdes and al., Int. J. Cancer (1983), vol. 31, pp. 13-20) by using the “Ki67” cell proliferation tracer, for the three following configurations (after a 100 1 twice-daily deposit on RHE): • case 1: PBS buffer solution (control) • case 2: HA fragments 150-600 kDa (concentrations 2 and 5%) • case 3: MSH complex (concentrations 2 and 5%)
Identically to the here-above test 1, keratinocytes' cellular proliferation is observed on reconstructed human epidermis RHE (with the immunotracking technique) for: • the MSH complex according to the invention (based on 150-600 kDa HA fragments) • the dimethylsilanediol hyaluronate marketed by the applicant under the “D.S.H. CN®” brand mark. • D.S.H. CN® is an organo-silicon product resulting from the combination of dimethylsilanediol with hyaluronic acid of high molecular weight (1500 to 2200 kDa HA fragments).

[2] = system: IL1α; assay: ELISA dosage of pro-inflammatory interleukin IL1 in RHE culture supernatant (test 2); assay type: cell-based, human; conditions: for IL1α quantity: RHE supernatant after 24 hours of treatment
Description: as §1, §2
(§3) The culture of RHE is identical to the one of the herebefore test 1. The dosage of the IL1 and IL8 pro-inflammatory interleukines is achieved on a supernatant resulting from culture medium after 24 hours of treatment, with the help of ELISA dosage kits (R&D System Quantikine Immunoassay, D800C, DTA00C and DLA50), and for identical configurations to those of the above test 1.

[3] = system: IL8; assay: ELISA dosage of pro-inflammatory interleukin IL8 in RHE culture supernatant (test 2); assay type: cell-based, human; conditions: for IL8 quantity: RHE supernatant after 24 hours of treatment
Description: as §1, §2, §3

[4] = system: bovine hyaluronidases; assay: Deterioration kinetic with hyaluronidases, agarose gel electrophoresis (test 3); assay type: in vitro ADME; conditions: 5, 15 and 30 min reaction at 37° C.; compared to fragmented HA non combined
Description: The experimental study consisted in measuring the deterioration kinetic of the MSH complex according to the invention submitted in vitro to bovine hyaluronidases, by electrophoresis on agarose gel. 10 1 of 1 mg/ml hyaluronidases are mixed to 50 1 of complex in a PBS buffer solution during 30 minutes at 37° C.
Successively at 5, 15 and 30 minutes, 10 1 of reaction mixture are taken, then heated at 95° C. in order to stop the enzymatic reaction. These 10 1 are then deposited on an agarose gel and a suitable stain (Stains all®) is used for the electrophoresis disclosure.

With “monomethylsilanetriol combined with one or several hyaluronic acid fragments of molecular weight between 150 and 600 kDa [MSH complex]” the cytostimulation ([1]; compared to non combined fragmented HA) was “potentiated cytostimulation”, the “% cells expressing Ki67/number of total cells (% in relation to the control)” value (shortened to “% cells expressing Ki67/number”) ([1]; concentration 2.5%, twice-daily deposit, three independent experiments) was “+14 (±1.0) %” and the “% cells expressing Ki67/number” value ([1]; concentration 5%, twice-daily deposit, three independent experiments) was “+63 (±0.5) %”. For the same substance, the “% cells expressing Ki67/number” value ([1]; test 4 (Table 4), concentration 5%) was “+69.5 (±3.1) %”, the “induction of pro-inflammatory cytokines” value ([2]; RHE, 24 hours, compared with control, IL1 and IL8) was “No significant induction” and the IL1α quantity ([2]; concentration 2.5%) was 3.5 (±1.8) pg/ml. The IL1α quantity ([2]; concentration 5%) was 3.4 (±0.8) pg/ml, the IL8 quantity ([3]; concentration 2.5%) was 20.1 (±7.2) pg/ml and the IL8 quantity ([3]; concentration 5%) was 34.8 (±13.7) pg/ml. The “IL8 type-interleukines' rate” value ([3]; in relation to the control and to the non combined HA fragment) was “reduction” and the “distribution of HA with a high molecular weight after hyaluronidase treatment” value [4] was “more important distribution of HA with a high molecular weight”.
